Tests used:
Type in all cases: cell-based
human keratinocytes [1] = test: Keratinocyte proliferation assay (β-AR agonist, OA)
Procedure: Keratinocytes were released from the tissue culture plate by treatment with 0.25% trypsin/EDTA (Gibco, Grand Island, N.Y.), resuspended in KGM and counted using a haemocytometer. Cells were either untreated or pre-treated with okadaic acid (OA) (10 nM) for 45 minutes prior to β-AR agonist (1 μM) addition. 5×10^4 cells were plated per well in a 12 well plate in triplicate in the presence or absence of 1 μM β-AR agonist, 10 nM OA or both. Triplicate wells were harvested and counted on days 2, 4, 6, 8. The medium was changed every day. Significance was taken as p<0.01, using Student's t test (unpaired) to compare the means of the cell populations.
5×10^4 […] keratinocytes were plated per well in a 12 well plate in triplicate in the presence or absence of β-AR agonist (1 μM) (FIG. 2 Panel A; control represented by circles, 1 μM β-AR agonist by squares), or pre-treated with 10 nM OA for 30 minutes prior to the addition of OA alone or both OA and β-AR agonist, (FIG. 2 Panel B; OA represented by X's and OA/β-AR agonist by stars). Cells were harvested and counted on days 2, 4, 6, 8 as described. The data are representative of three independent experiments with at least two different keratinocyte strains. Values plotted are means+/−SEM. *P<0.01 between β-AR agonist and controls.

human keratinocytes [2] = test: Immunofluorescent staining of actin and vinculin, keratinocytes (β-AR agonist, OA)
Procedure: Sterile glass cover-slips (Fisher Scientific, Pittsburgh, Pa.) were transferred into 12 well dishes and collagen-coated with 60 μg/ml collagen I in KGM for 1 hour at 37° C. Cover-slips were washed three times with KGM and 3×10^4 cells were added per well and allowed to attach overnight. Cells were untreated, treated with 1 μM β-AR agonist for 15 minutes, OA (10 nM) for 45 minutes, or pre-treated with OA (10 nM) for 30 minutes prior to the addition of 1 μM β-AR agonist for 15 minutes. All steps were performed at room temperature unless otherwise noted. Cover slips were washed twice in PBS and fixed for 10 minutes in 4% paraformaldehyde. Cover-slips were washed twice in PBS between each step. Cells were permeabilized for 5 minutes with 0.1% Triton-X-100/PBS, blocked with 5% goat serum/PBS for 20 minutes, primary monoclonal anti-vinculin antibody (Sigma, St. Louis, Mo.) or anti-phospho-ERK antibody (Cell Signaling Technology, Beverly, Mass.) were added drop-wise in 1% goat serum/PBS (1:100) and incubated for 1 hour at 37° C. A goat anti-mouse cy3 (Jackson labs, West Grove, Pa.) (1:100) antibody was then added in 1% goat serum/PBS for 1 hour at 37° C. Alexa 488-phalloidin (Molecular Probes, Eugene, Oreg.) (1:40) in PBS was added to the vinculin-stained cover-slips for 20 minutes. […]

adult human CECs = test: Single cell migration assay, adult human corneal epithelial cells
Procedure: Glass bottomed 35 mm dishes (MatTek Corporation, Ashland, Mass.) were coated with collagen I (60 μg/ml) (Cohesion Technologies, Palo Alto, Calif.) in PBS for 1 hour at 37° C. Adult human CECs were plated at a density of 50 cells/mm^2 for 2 hours at 37° C. Cells were pre-incubated with either CGM alone or CGM containing 100 nM okadaic acid (OA) for 45 minutes at 37° C. Untreated cells were then incubated with CGM alone (control) or with CGM containing either 20 μM β-AR antagonist, 10 nM or 1 μM β-AR agonist. Pre-treated cells were stimulated with 100 nM OA alone or both 10 nM or 1 μM β-AR agonist and 100 nM OA at time 0. The 35 mm glass-bottomed dishes were placed in a heating chamber, designed to maintain the media between 35-37° C., secured to the stage of an inverted Nikon Diaphot microscope. Individual cell migration was monitored over a 1 hour period at 37° C., as described previously (Pullar and Isseroff (2005b) “Cyclic AMP mediates keratinocyte directional migration in an electric field” J Cell Sci 118:2023-2034). […] After each cell's center of mass was tracked using the Open Lab software, migration speed and distance were calculated and imported to Excel (Microsoft Corporation, Redmond, Wash.). […]

**Q.** Which “effect on keratinocyte proliferation” value (human keratinocytes [1]; OA 10 nM alone) does the source give for `C=C1[C@@H](O)[C@@H]2O[C@]3(CC[C@H](/C=C/[C@@H](C)[C@@H]4CC(C)=C[C@@]5(O[C@H](C[C@@](C)(O)C(=O)O)CC[C@H]5O)O4)O3)CC[C@H]2O[C@@H]1[C@@H](O)C[C@H](C)[C@H]1O[C@@]2(CCCCO2)CC[C@H]1C` [OA, okadaic acid] here?
**A.** no effect

**Q.** What about the “effect on β2-AR-mediated decrease in proliferation” value (human keratinocytes [1]; OA 10 nM pre-treatment, then OA plus 1 μM β-AR agonist) of the same compound?
**A.** completely prevents

**Q.** And the “effect on cytoskeletal conformation” value (human keratinocytes [2]; OA 10 nM alone, 45 minutes)?
**A.** no effect

**Q.** And the “effect on β2-AR-mediated change in cytoskeletal conformation” value (human keratinocytes [2]; OA 10 nM pre-treatment prior to 1 μM β-AR agonist)?
**A.** prevents

**Q.** And the “effect on migration rate” value (adult human CECs; OA 100 nM alone)?
**A.** no effect

**Q.** And the “effect on β-AR agonist-mediated decrease in migration rate” value (adult human CECs; OA 100 nM pre-treatment, then OA plus β-AR agonist)?
**A.** completely prevents
